#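 These data come from cells grown in 96-well plates and exposed to compound for 48 hours at five concentrations. Abbreviation: GI50, concentration required for 50% inhibition of growth. Definition used: TGI = concentration required for complete inhibition of growth.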
# How the values were obtained:
# Assay in all cases: DTP human tumour cell line panel, 48 h
# U251 CNS = tested on: U251 CNS
# MDA-MB-231 breast = tested on: MDA-MB-231 breast
# HOP-92 NSCLC = tested on: HOP-92 NSCLC
# OVCAR-4 ovarian = tested on: OVCAR-4 ovarian
# NCI/ADR-RES ovarian = tested on: NCI/ADR-RES ovarian
# OVCAR-5 ovarian = tested on: OVCAR-5 ovarian
# HT29 colon = tested on: HT29 colon
# A498 renal = tested on: A498 renal
# NCI-H226 lung = tested on: NCI-H226 lung
# UACC-62 melanoma = tested on: UACC-62 melanoma
# SN12C renal = tested on: SN12C renal
# KM12 colon = tested on: KM12 colon
# COLO 205 colon = tested on: COLO 205 colon
# SK-MEL-2 melanoma = tested on: SK-MEL-2 melanoma
# HCT-116 colon = tested on: HCT-116 colon
# OVCAR-8 ovarian = tested on: OVCAR-8 ovarian
# A549 NSCLC = tested on: A549 NSCLC
# MCF7 breast = tested on: MCF7 breast
# ACHN renal = tested on: ACHN renal
# RPMI-8226 leukemia = tested on: RPMI-8226 leukemia
# T-47D breast = tested on: T-47D breast
# SF-295 CNS = tested on: SF-295 CNS
# NCI-H23 lung = tested on: NCI-H23 lung
# HL-60(TB) leukemia = tested on: HL-60(TB) leukemia
# OVCAR-3 ovarian = tested on: OVCAR-3 ovarian
# RXF 393 renal = tested on: RXF 393 renal
# HS 578T breast = tested on: HS 578T breast
# MALME-3M melanoma = tested on: MALME-3M melanoma
# HOP-62 NSCLC = tested on: HOP-62 NSCLC
# UO-31 renal = tested on: UO-31 renal
# UACC-257 melanoma = tested on: UACC-257 melanoma
# CAKI-1 renal = tested on: CAKI-1 renal
# BT-549 breast = tested on: BT-549 breast
# HCT-15 colon = tested on: HCT-15 colon
# SK-OV-3 ovarian = tested on: SK-OV-3 ovarian
# DU-145 prostate = tested on: DU-145 prostate
# MDA-MB-435 = tested on: MDA-MB-435
# SW-620 colon = tested on: SW-620 colon
# HCC-2998 colon = tested on: HCC-2998 colon
# NCI-H522 lung = tested on: NCI-H522 lung
# EKVX NSCLC = tested on: EKVX NSCLC
# PC-3 prostate = tested on: PC-3 prostate
# SNB-75 CNS = tested on: SNB-75 CNS
# IGROV1 ovarian = tested on: IGROV1 ovarian
# SR leukemia = tested on: SR leukemia
# MOLT-4 leukemia = tested on: MOLT-4 leukemia
# SNB-19 CNS = tested on: SNB-19 CNS
# SK-MEL-5 melanoma = tested on: SK-MEL-5 melanoma
# K-562 leukemia = tested on: K-562 leukemia
# SF-268 CNS = tested on: SF-268 CNS
# SK-MEL-28 melanoma = tested on: SK-MEL-28 melanoma
# 786-0 renal = tested on: 786-0 renal
# NCI-H460 lung = tested on: NCI-H460 lung
# CCRF-CEM leukemia = tested on: CCRF-CEM leukemia
# LOX IMVI melanoma = tested on: LOX IMVI melanoma
# M14 melanoma = tested on: M14 melanoma
# TK-10 renal = tested on: TK-10 renal
smiles,measurement,setting,value
CC12OC(CC(O)C1O)n1c3ccccc3c3c4c(c5c6ccccc6n2c5c31)C(=O)N(CCN1CCCC1)C4=O (centres undefined),GI50,U251 CNS,0.488 µM
same,TGI,U251 CNS,6.51 µM
same,GI50,MDA-MB-231 breast,3.38 µM
same,TGI,MDA-MB-231 breast,11.2 µM
same,GI50,HOP-92 NSCLC,3.85 µM
same,TGI,HOP-92 NSCLC,10.3 µM
same,GI50,OVCAR-4 ovarian,1.88 µM
same,TGI,OVCAR-4 ovarian,12.3 µM
same,GI50,NCI/ADR-RES ovarian,6.31 µM
same,TGI,NCI/ADR-RES ovarian,14.5 µM
same,GI50,OVCAR-5 ovarian,2.25 µM
same,TGI,OVCAR-5 ovarian,14.9 µM
same,GI50,HT29 colon,0.434 µM
same,TGI,HT29 colon,7.07 µM
same,GI50,A498 renal,1.5 µM
same,TGI,A498 renal,7.5 µM
same,GI50,NCI-H226 lung,1.42 µM
same,TGI,NCI-H226 lung,11.4 µM
same,GI50,UACC-62 melanoma,0.513 µM
same,TGI,UACC-62 melanoma,2.58 µM
same,GI50,SN12C renal,0.577 µM
same,TGI,SN12C renal,6.64 µM
same,GI50,KM12 colon,1.3 µM
same,TGI,KM12 colon,8.68 µM
same,GI50,COLO 205 colon,0.377 µM
same,TGI,COLO 205 colon,6.16 µM
same,GI50,SK-MEL-2 melanoma,5.16 µM
same,TGI,SK-MEL-2 melanoma,12.9 µM
same,GI50,HCT-116 colon,0.321 µM
same,TGI,HCT-116 colon,6.35 µM
same,GI50,OVCAR-8 ovarian,1.1 µM
same,TGI,OVCAR-8 ovarian,9.12 µM
same,GI50,A549 NSCLC,0.282 µM
same,TGI,A549 NSCLC,6.17 µM
same,GI50,MCF7 breast,0.199 µM
same,TGI,MCF7 breast,5.88 µM
same,GI50,ACHN renal,0.336 µM
same,TGI,ACHN renal,2.34 µM
same,GI50,RPMI-8226 leukemia,1.32 µM
same,TGI,RPMI-8226 leukemia,4.43 µM
same,GI50,T-47D breast,0.868 µM
same,TGI,T-47D breast,7.94 µM
same,GI50,SF-295 CNS,0.291 µM
same,TGI,SF-295 CNS,5.96 µM
same,GI50,NCI-H23 lung,1.24 µM
same,TGI,NCI-H23 lung,7.95 µM
same,GI50,HL-60(TB) leukemia,0.562 µM
same,TGI,HL-60(TB) leukemia,8.7 µM
same,GI50,OVCAR-3 ovarian,1.77 µM
same,TGI,OVCAR-3 ovarian,8.95 µM
same,GI50,RXF 393 renal,1.23 µM
same,TGI,RXF 393 renal,7.25 µM
same,GI50,HS 578T breast,3.05 µM
same,TGI,HS 578T breast,13.8 µM
same,GI50,MALME-3M melanoma,1.3 µM
same,TGI,MALME-3M melanoma,8.41 µM
same,GI50,HOP-62 NSCLC,0.424 µM
same,TGI,HOP-62 NSCLC,5.71 µM
same,GI50,UO-31 renal,1.5 µM
same,TGI,UO-31 renal,9.95 µM
same,GI50,UACC-257 melanoma,3.54 µM
same,TGI,UACC-257 melanoma,11.8 µM
same,GI50,CAKI-1 renal,1.41 µM
same,TGI,CAKI-1 renal,9.01 µM
same,GI50,BT-549 breast,3.85 µM
same,TGI,BT-549 breast,11.5 µM
same,GI50,HCT-15 colon,1 µM
same,TGI,HCT-15 colon,6.77 µM
same,GI50,SK-OV-3 ovarian,1.57 µM
same,TGI,SK-OV-3 ovarian,6.99 µM
same,GI50,DU-145 prostate,1.06 µM
same,TGI,DU-145 prostate,5.82 µM
same,GI50,MDA-MB-435,1.7 µM
same,TGI,MDA-MB-435,8.11 µM
same,GI50,SW-620 colon,0.31 µM
same,TGI,SW-620 colon,7.22 µM
same,GI50,HCC-2998 colon,3.96 µM
same,TGI,HCC-2998 colon,10.8 µM
same,GI50,NCI-H522 lung,0.606 µM
same,TGI,NCI-H522 lung,5.4 µM
same,GI50,EKVX NSCLC,1.67 µM
same,TGI,EKVX NSCLC,9.64 µM
same,GI50,PC-3 prostate,1.79 µM
same,TGI,PC-3 prostate,9.13 µM
same,GI50,SNB-75 CNS,0.879 µM
same,TGI,SNB-75 CNS,6.71 µM
same,GI50,IGROV1 ovarian,0.951 µM
same,TGI,IGROV1 ovarian,10.8 µM
same,GI50,SR leukemia,0.149 µM
same,TGI,SR leukemia,6.08 µM
same,GI50,MOLT-4 leukemia,0.197 µM
same,TGI,MOLT-4 leukemia,16.5 µM
same,GI50,SNB-19 CNS,1.25 µM
same,TGI,SNB-19 CNS,9.29 µM
same,GI50,SK-MEL-5 melanoma,1.22 µM
same,TGI,SK-MEL-5 melanoma,7.12 µM
same,GI50,K-562 leukemia,0.68 µM
same,TGI,K-562 leukemia,19.4 µM
same,GI50,SF-268 CNS,0.789 µM
same,TGI,SF-268 CNS,8.47 µM
same,GI50,SK-MEL-28 melanoma,2.24 µM
same,TGI,SK-MEL-28 melanoma,9.7 µM
same,GI50,786-0 renal,1.29 µM
same,TGI,786-0 renal,6.36 µM
same,GI50,NCI-H460 lung,0.161 µM
same,TGI,NCI-H460 lung,1.06 µM
same,GI50,CCRF-CEM leukemia,0.936 µM
same,TGI,CCRF-CEM leukemia,10.7 µM
same,GI50,LOX IMVI melanoma,0.308 µM
same,TGI,LOX IMVI melanoma,1.45 µM
same,GI50,M14 melanoma,1.23 µM
same,TGI,M14 melanoma,7.64 µM
same,GI50,TK-10 renal,1.21 µM
same,TGI,TK-10 renal,10.4 µM
